Converted amounts (≈) assume the structure as drawn. “Also recorded” adds a separate entry of the source. Marks after values point to notes of the source that are not given here.
Tests used:
BSEP [1] = target: T1, BSEP (Homo sapiens, UniProt O95342); assay: in vitro
[2] = Solubility in stock solvent and assay buffers
BSEP [3] = target: T1, BSEP; assay: Inhibition of 3H-taurocholic acid uptake by BSEP membrane vesicles (inhibitor assessment); settings: for inhibitor of BSEP (conclusion in words): criterion >25% concentration-dependent inhibition of probe substrate uptake; for ATP-Dependent Uptake Activity of 3H-taurocholic acid / Signal-to-Noise Ratio / Uptake Activity of 3H-taurocholic acid, Mg-AMP / Uptake Activity of 3H-taurocholic acid, Mg-ATP: 3H-taurocholic acid 1 μM
BSEP [4] = target: T1, BSEP; assay: ATP-dependent uptake of test article by BSEP-transfected Sf9 membrane vesicles (substrate assessment); settings: for substrate of BSEP (conclusion in words): criteria ≥2-fold ATP-dependent uptake and >50% inhibition by selective inhibitor
Caco-2 cells = assay: Recovery of test article in the Caco-2 efflux assay; assay type: in vitro ADME; settings: 1 and 10 μM, in the presence of cells
Description: Non-specific binding of phenylacetic acid to the transwell assay plate in the absence of cells was not conducted. However, the recovery of the test article (1 and 10 μM) was determined in the Caco-2 efflux assay, in the presence of cells, and was acceptable.

[5] = test article 1 μM + cyclosporine 20 μM
[6] = test article 10 μM + cyclosporine 20 μM

T1 sequence (O95342 whole entry): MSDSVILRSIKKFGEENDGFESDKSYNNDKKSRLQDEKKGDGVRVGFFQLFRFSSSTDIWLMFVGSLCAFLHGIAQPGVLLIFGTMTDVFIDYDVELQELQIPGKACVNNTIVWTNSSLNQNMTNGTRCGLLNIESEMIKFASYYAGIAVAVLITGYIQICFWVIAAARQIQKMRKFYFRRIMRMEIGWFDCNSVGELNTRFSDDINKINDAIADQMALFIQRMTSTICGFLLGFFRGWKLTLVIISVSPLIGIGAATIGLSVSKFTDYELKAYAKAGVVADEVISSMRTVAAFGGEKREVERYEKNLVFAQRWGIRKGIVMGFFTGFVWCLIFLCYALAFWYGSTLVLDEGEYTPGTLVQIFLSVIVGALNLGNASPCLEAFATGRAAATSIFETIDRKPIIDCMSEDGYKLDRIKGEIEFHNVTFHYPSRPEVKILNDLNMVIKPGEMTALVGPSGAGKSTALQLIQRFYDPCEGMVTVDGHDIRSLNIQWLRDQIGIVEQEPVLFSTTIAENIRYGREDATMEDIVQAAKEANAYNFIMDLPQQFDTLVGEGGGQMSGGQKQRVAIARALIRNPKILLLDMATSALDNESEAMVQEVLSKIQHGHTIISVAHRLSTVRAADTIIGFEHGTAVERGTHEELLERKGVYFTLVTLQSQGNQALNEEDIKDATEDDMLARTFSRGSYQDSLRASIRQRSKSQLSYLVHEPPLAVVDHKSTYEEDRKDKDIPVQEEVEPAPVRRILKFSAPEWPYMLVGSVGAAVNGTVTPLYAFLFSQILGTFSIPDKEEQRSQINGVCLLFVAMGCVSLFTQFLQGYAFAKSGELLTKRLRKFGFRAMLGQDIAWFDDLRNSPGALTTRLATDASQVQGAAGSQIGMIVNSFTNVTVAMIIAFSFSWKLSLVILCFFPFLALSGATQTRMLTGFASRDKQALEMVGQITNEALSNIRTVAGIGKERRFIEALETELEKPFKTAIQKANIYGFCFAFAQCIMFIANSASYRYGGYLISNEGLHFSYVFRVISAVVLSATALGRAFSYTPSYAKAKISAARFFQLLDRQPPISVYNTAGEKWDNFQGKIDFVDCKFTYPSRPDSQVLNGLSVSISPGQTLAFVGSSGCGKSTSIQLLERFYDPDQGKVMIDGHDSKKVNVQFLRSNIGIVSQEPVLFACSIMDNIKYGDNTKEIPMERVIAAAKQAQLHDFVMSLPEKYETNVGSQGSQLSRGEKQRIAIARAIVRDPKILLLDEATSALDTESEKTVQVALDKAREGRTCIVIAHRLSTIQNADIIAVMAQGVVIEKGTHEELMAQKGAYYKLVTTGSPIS

SMILES: O=C(O)Cc1ccccc1 [Phenylacetic acid]
- activity at 30 min, 750 μM (BSEP [1]): 99.6%
- activity at 30 min, 7500 μM (BSEP [1]): 0%
- potency estimated from few doses at 30 min (BSEP [1]): < 7.5 mM
- solubility ([2]; aqueous buffer, kinetic from dmso stock): 7.5 mM (≈ 1.02 mg/mL)
- solubility ([2]; methanol, organic solvent or mixture): 1500 mM (≈ 204 mg/mL)
- inhibitor of BSEP (conclusion in words) (BSEP [3]): strongly inhibited; also recorded: identified as an inhibitor of BSEP; also recorded: inhibited BSEP
- inhibitor of BSEP (conclusion in words) (BSEP [3]; listed as phenylacetic acid): inhibit BSEP
- ATP-Dependent Uptake Activity of 3H-taurocholic acid (BSEP [3]; inhibitor 750 μM): 4.68 pmol/minute/mg protein
- Signal-to-Noise Ratio (BSEP [3]; inhibitor 750 μM): 17.2
- Uptake Activity of 3H-taurocholic acid, Mg-AMP (BSEP [3]; inhibitor 750 μM): 0.288 pmol/minute/mg protein
- Uptake Activity of 3H-taurocholic acid, Mg-ATP (BSEP [3]; inhibitor 750 μM): 4.96 pmol/minute/mg protein
- ATP-Dependent Uptake Activity of 3H-taurocholic acid (BSEP [3]; inhibitor 7500 μM): −0.136 pmol/minute/mg protein
- Signal-to-Noise Ratio (BSEP [3]; inhibitor 7500 μM): 0.731
- Uptake Activity of 3H-taurocholic acid, Mg-AMP (BSEP [3]; inhibitor 7500 μM): 0.506 pmol/minute/mg protein
- Uptake Activity of 3H-taurocholic acid, Mg-ATP (BSEP [3]; inhibitor 7500 μM): 0.370 pmol/minute/mg protein
- ATP-Dependent Uptake Activity of test article (BSEP [4]; test article 1 μM): 24.2 pmol/minute/mg protein
- Signal-to-Noise Ratio (BSEP [4]; test article 1 μM): 9.95
- Uptake Activity of test article, Mg-AMP (BSEP [4]; test article 1 μM): 2.71^b pmol/minute/mg protein
- Uptake Activity of test article, Mg-ATP (BSEP [4]; test article 1 μM): 26.9 pmol/minute/mg protein
- ATP-Dependent Uptake Activity of test article (BSEP [4]; [5]): 18.3 pmol/minute/mg protein
- Signal-to-Noise Ratio (BSEP [4]; [5]): 3.41
- Uptake Activity of test article, Mg-AMP (BSEP [4]; [5]): 7.60^c pmol/minute/mg protein
- Uptake Activity of test article, Mg-ATP (BSEP [4]; [5]): 25.9 pmol/minute/mg protein
- ATP-Dependent Uptake Activity of test article (BSEP [4]; test article 10 μM): 814 pmol/minute/mg protein
- Signal-to-Noise Ratio (BSEP [4]; test article 10 μM): 12.6
- Uptake Activity of test article, Mg-AMP (BSEP [4]; test article 10 μM): 70.3 pmol/minute/mg protein
- Uptake Activity of test article, Mg-ATP (BSEP [4]; test article 10 μM): 884 pmol/minute/mg protein
- ATP-Dependent Uptake Activity of test article (BSEP [4]; [6]): 772 pmol/minute/mg protein
- Signal-to-Noise Ratio (BSEP [4]; [6]): 10.1
- Uptake Activity of test article, Mg-AMP (BSEP [4]; [6]): 84.7 pmol/minute/mg protein
- Uptake Activity of test article, Mg-ATP (BSEP [4]; [6]): 857 pmol/minute/mg protein
- ATP-dependent BSEP uptake activity relative to AMP uptake (BSEP [4]; test article 1 and 10 μM): > 2 fold
- substrate of BSEP (conclusion in words) (BSEP [4]; test article 1 and 10 μM): not identified as a substrate
- substrate of BSEP (conclusion in words) (BSEP [4]; test article 1 and 10 μM, listed as phenylacetic acid): not a substrate; also recorded: unlikely that phenylacetic acid is a substrate
- inhibition of test article uptake by cyclosporine A (BSEP [4]; test article 1 and 10 μM, cyclosporine A 20 μM): not inhibited by cyclosporine A
- recovery of the test article in the Caco-2 efflux assay (Caco-2 cells): acceptable
